Measurements from PubChem BioAssay AID2744 (NMMLSC, 2010).
The source made the active and inactive calls.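 The calls were made as follows: active = fitted half-maximal concentration for changing reporter fluorescence at or below a set limit; inactive = the rest.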

Target: Citrate synthase, peroxisomal (Saccharomyces cerevisiae (strain ATCC 204508 / S288c)) (UniProt P08679)
Assay: CIT2-GFP expression modulators in yeast, dose response, flow cytometry, MLPCN hits (AID 2744)
Conditions: S. cerevisiae CIT2-GFP strain, 3 h; for GFP fluorescence, higher = induction: at 33 µM (top of the series)

Sequence of Citrate synthase, peroxisomal (Saccharomyces cerevisiae (strain ATCC 204508 / S288c)) (P08679 whole entry, looked up): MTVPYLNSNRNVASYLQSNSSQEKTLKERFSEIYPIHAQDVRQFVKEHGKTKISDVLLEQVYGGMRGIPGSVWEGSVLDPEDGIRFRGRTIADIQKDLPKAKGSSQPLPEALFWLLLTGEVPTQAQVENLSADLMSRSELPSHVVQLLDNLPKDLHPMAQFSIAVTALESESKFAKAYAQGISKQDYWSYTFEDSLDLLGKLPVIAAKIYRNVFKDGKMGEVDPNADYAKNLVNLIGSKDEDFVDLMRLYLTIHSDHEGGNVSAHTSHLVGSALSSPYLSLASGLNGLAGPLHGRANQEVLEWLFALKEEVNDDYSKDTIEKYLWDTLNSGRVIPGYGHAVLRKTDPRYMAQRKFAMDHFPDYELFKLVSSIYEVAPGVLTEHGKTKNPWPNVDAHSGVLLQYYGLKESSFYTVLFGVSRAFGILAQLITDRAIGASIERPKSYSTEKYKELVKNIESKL

Row | Structure (SMILES) | GFP fluorescence, higher = induction | EC50 (flow cytometry fluorescence) [nM]
1 | O=c1/c(=C/c2cccc3ccccc23)sc2ncnn12 | inactive | –
2 | COc1ccc(NC(=O)/C(C#N)=C/c2ncc([N+](=O)[O-])n2C)c(OC)c1 | inactive | –
3 | Nc1nc2ncc(CNc3ccc(C(=O)N[C@@H](CCC(=O)O)C(=O)O)cc3)nc2c(=O)[nH]1 | inactive | –
4 | CCCCCn1c(=O)c(C(=O)Nc2nc3ccccc3[nH]2)c(O)c2ccccc21 | inactive | –
5 | COc1cccc2sc(Nc3nc(-c4ccccn4)cs3)nc12 | inactive | –
6 | Cc1c(N2C(=O)/C(=C\c3ccccc3O)SC2=S)c(=O)n(-c2ccccc2)n1C | inactive | –
7 | CS(=O)(=O)c1nc(-c2ccccc2)cc(C(F)(F)F)n1 | inactive | –
8 | CC(C)Cn1c(=O)c(C(=O)Nc2ccncc2)c(O)c2ccccc21 | inactive | –
9 | O=C(Cc1ccc(Cl)cc1)NNC(=S)NC(=O)c1cccs1 | inactive | –
10 | Cc1cc(C(=O)COC(=O)c2ccc[nH]c2=O)c(C)n1-c1ccccc1F | inactive | –
11 | N#C/C(=C\c1cc(Br)ccc1F)C(=O)NC1CC1 | inactive | –
12 | Cc1ccc2nc(Cl)c3nnnn3c2c1 | inactive | –
13 | COc1cccc(/C=N/Nc2ncc(C(F)(F)F)cc2Cl)c1O | inactive | –
14 | Cc1cc(C)c(S(=O)(=O)N2CCC(C(=O)NCc3ccc(Cl)cc3Cl)CC2)c(C)c1 | inactive | –
15 | O=S(=O)(/N=C(\Sc1ccc(Cl)cc1)c1ccccc1)c1ccccc1 | inactive | –
16 | COc1ccc(C(=O)NNC(=S)NC(=O)/C=C/c2cccs2)cc1 | inactive | –
17 | O=C(Nc1nc(-c2ccccn2)cs1)c1cc2ccccc2o1 | inactive | –
18 | O=C(Oc1c(Cl)cc(Cl)c2cccnc12)c1cccc([N+](=O)[O-])c1 | inactive | –
19 | CCOc1ccc(N2C(=O)C(Cl)=C(Nc3ccccc3O)C2=O)cc1 | inactive | –
20 | O=[N+]([O-])c1cc(Cl)cc(/C=N\Nc2ccccn2)c1O | inactive | –
21 | O=C1NC(=O)N(Cc2ccc(F)cc2)C(=O)/C1=C/c1cccs1 | inactive | –

Row | Structure (SMILES) | GFP fluorescence, higher = induction | EC50 (flow cytometry fluorescence) [nM]
22 | CCc1ccc(C(=O)/C=C/c2ccc([N+](=O)[O-])o2)cc1 | inactive | –
23 | Cc1cccc(N2C(=O)C(Cl)=C(Nc3c(C)n(C)n(-c4ccccc4)c3=O)C2=O)c1C | inactive | –
24 | COc1ccccc1OCCCc1c(C)n[nH]c1C | inactive | –
25 | O=C1C=C(Nc2ccc(Cl)cc2)C(=O)N1c1ccc(Cl)cc1 | inactive | –
26 | CN(Cc1cnc2nc(N)nc(N)c2n1)c1ccc(C(=O)N[C@@H](CCC(=O)O)C(=O)O)cc1 | inactive | –
27 | COc1cc(NC(=O)c2cccc(C)c2)ccc1NC(=O)c1cc2ccccc2o1 | inactive | –
28 | COC(CNC(=O)c1ccc2c3c(onc13)-c1ccccc1C2=O)OC | inactive | –
29 | COc1cc(N=c2ssnc2Cl)cc(OC)c1 | inactive | –
30 | Cc1ccc(S(=O)(=O)c2ncccc2[N+](=O)[O-])cc1 | inactive | –
31 | Oc1c(C(Nc2nc3ccccc3s2)c2ccco2)ccc2cccnc12 (centres undefined) | inactive | –
32 | O=S(=O)(CCN(CCS(=O)(=O)C(F)(F)F)CC1CCCO1)C(F)(F)F (centres undefined) | inactive | –
33 | Cc1c(NC2=C(Cl)C(=O)N(c3ccccc3Cl)C2=O)c(=O)n(-c2ccccc2)n1C | inactive | –
34 | Cc1nc2ccc(NC(=O)c3oc4ccc(F)cc4c3C)cc2s1 | inactive | –
35 | CCc1cccc2sc(N3CCN(C(=O)c4ccc([N+](=O)[O-])o4)CC3)nc12 | inactive | –
36 | COc1ccc(C(=O)NC(=S)NNC(=O)c2cnccn2)cc1 | inactive | –
37 | O=C(Nc1ccc(Cl)cc1)ON=C1CCCC1 | – | 1230
38 | Cc1ccccc1C(=O)NNC(=S)NC(=O)c1ccc(Cl)cc1Cl | inactive | –
39 | CC1=CC(=O)C(C(C)C)=C/C1=N/OS(=O)(=O)c1ccccc1 | inactive | –
40 | CCCc1cc(NCc2ccccn2)n2nc(C)c(-c3ccccc3)c2n1 | inactive | –
41 | Cc1ccsc1/C=C1\C(=O)NC(=S)N(C)C1=O | inactive | –
42 | Cc1cc2ccccn2c1C(=O)c1ccc([N+](=O)[O-])o1 | inactive | –

Row | Structure (SMILES) | GFP fluorescence, higher = induction | EC50 (flow cytometry fluorescence) [nM]
43 | COc1cc(/C=C2\C(=O)ON=C2c2ccc(Cl)cc2)ccc1O | inactive | –
44 | O=C1c2ccccc2C(=O)C2OC12 (centres undefined) | inactive | –
45 | Cc1ccc(C(=O)O)cc1N=Cc1cc(Br)cc(Br)c1O | inactive | –
46 | Cc1cccc(C(=O)NC(=S)NNC(=O)Cc2ccccc2)c1 | inactive | –
47 | Cc1cccc(OCCN2CSC(=S)N(C)C2)c1 | inactive | –
48 | O=C1ON=C(c2ccccc2)/C1=C\c1ccco1 | inactive | –
49 | CCc1cc(C(=O)Nc2nc(-c3ccccn3)cs2)sc1C | inactive | –
50 | O=C1N(c2ccccc2C(F)(F)F)OC1(Cc1ccccc1)c1ccccc1 (centres undefined) | inactive | –
51 | COc1ccccc1[C@@]1(C)ON(c2ccccc2C(F)(F)F)C1=O | inactive | –
52 | O=C(/C=C/c1ccc(Br)cc1)NC(=S)NNC(=O)c1ccco1 | inactive | –
53 | Cc1ccc(N=Nc2ccc(O)c3ncccc23)cc1 | inactive | –
54 | C#CCOc1c(Br)cc(/C=C2/C(=O)ON=C2C)cc1OC | inactive | –
55 | COc1ccc(/C=C2\C(=O)ON=C2c2ccccc2)cc1 | inactive | –
56 | CCOC(=O)c1ccc(N=Cc2nc(-c3ccccc3)oc2OC(C)=O)cc1 | inactive | –
57 | Nc1ccccc1C#CC(=O)c1ccccc1 | inactive | –
58 | CC(C)(C)c1ccc(NC(=O)COC(=O)c2ccc([N+](=O)[O-])s2)cc1 | inactive | –
59 | COc1ccc(N/N=C(\C#N)C(N)=O)cc1 | inactive | –
60 | O=C1ON=C(c2ccccc2)/C1=C/c1ccco1 | inactive | –
61 | O=C1C2C3C=CC(CO)(O3)C2C(=O)N1c1ccccc1-c1ccccc1 (centres undefined) | inactive | –
62 | COc1ccccc1C(=O)NNC(=S)NC(=O)c1ccco1 | inactive | –
63 | Cc1nn2c(NCc3ccccn3)c3c(nc2c1-c1ccccc1)CCC3 | inactive | –

Row | Structure (SMILES) | GFP fluorescence, higher = induction | EC50 (flow cytometry fluorescence) [nM]
64 | Cc1ccc(N=c2ssnc2Cl)cc1 | inactive | –
65 | CC(C)(C)C1C/C(=C/c2ccccn2)C(=O)/C(=C/c2ccccn2)C1 (centres undefined) | inactive | –
66 | COc1ccc(CCNC2=C(Cl)C(=O)N(CCc3ccc(OC)c(OC)c3)C2=O)cc1OC | inactive | –
67 | O=C1C=CC(=O)N1c1ccc(Sc2ccc([N+](=O)[O-])cc2)cc1 | inactive | –
68 | O=C(NC(=S)Nc1ccc2oc(=O)ccc2c1)c1cccc(Cl)c1 | inactive | –
69 | CC1=NNC(=O)/C1=C\c1cn(-c2ccccc2)nc1-c1ccccc1 | inactive | –
70 | Cc1ccc(/C=C2\C(=O)NC(=S)N(c3ccccc3F)C2=O)s1 | inactive | –
71 | O=c1c2cc(Cl)ccc2nc(-c2ccc([N+](=O)[O-])cc2)n1O | inactive | –
72 | Cc1cc(=O)n2c3c(sc2n1)C(=O)N(Cc1ccccc1)C3=O | inactive | –
73 | O=[N+]([O-])c1cnc(Sc2ccncn2)s1 | inactive | –
74 | CCCCCCCCn1sccc1=O | inactive | –
75 | O=[N+]([O-])c1cc(S(=O)(=O)C(F)(F)F)ccc1Sc1nc2ccccc2s1 | inactive | –
76 | O=C1C=C(c2ccccc2)C(=O)N1Nc1ccccc1 | inactive | –
77 | Clc1cccc(CN2COc3c(cc(Cl)c4cccnc34)C2)c1 | inactive | –
78 | C#CCOCCOCCOCCNc1nc(N2CCN(C(=O)CCCCCCCCCCNC(=O)[C@H](CCCCN)n3cc(C)nn3)CC2)nc(N2CCN(C(=O)CCCCCCCCCCNC(=O)[C@H](CCCN=C(N)N)n3cc(C[C@@H](C)CC)nn3)CC2)n1 | inactive | –
79 | O=C1C=CC(=O)N1c1ccc(N2CCCCC2)cc1 | inactive | –
80 | O=C(COc1ccccc1)NNC(=S)NC(=O)c1ccc(Cl)cc1Cl | inactive | –
81 | O=C1N(c2ccccc2C(F)(F)F)O[C@@]1(c1ccccc1)C1CCCC1 | inactive | –
82 | Cc1ccc(C(=O)NNC(=S)NC(=O)COc2ccccc2)cc1 | inactive | –
83 | O=C(Nc1ccc(N2CCOCC2)cc1)C1CCN(S(=O)(=O)c2ccc3c(c2)OCCO3)CC1 | inactive | –
84 | O=c1[nH]c(-c2ccc(Cl)cc2)cs1 | inactive | –
